According to patent publication US7687515B2, “6-phenyl-1H-imidazo[4,5-c]pyridine-4-carbonitrile derivatives” (priority 2006, dated 2010):

Target: recombinant human Cathepsin S (Homo sapiens, UniProt P25774)
Assay: Cathepsin S assay: inhibition of recombinant human Cathepsin S (Z-Val-Val-Arg-AMC fluorescence)
Type: biochemical
Method: Cathepsin S Assay Procedure
25 μl of a 2 mg/l solution of activated recombinant human cathepsin S, in assay buffer, is then added to the well, yielding a final inhibitor concentration of 10 μM.
Enzyme activity is determined by measuring the fluorescence of the liberated aminomethylcoumarin at […] using 390 nm excitation, at 20 minutes. Percentage enzyme activity is calculated by comparison of this activity to that of a solution containing no inhibitor.

recombinant human Cathepsin S, sequence (P25774 115-331): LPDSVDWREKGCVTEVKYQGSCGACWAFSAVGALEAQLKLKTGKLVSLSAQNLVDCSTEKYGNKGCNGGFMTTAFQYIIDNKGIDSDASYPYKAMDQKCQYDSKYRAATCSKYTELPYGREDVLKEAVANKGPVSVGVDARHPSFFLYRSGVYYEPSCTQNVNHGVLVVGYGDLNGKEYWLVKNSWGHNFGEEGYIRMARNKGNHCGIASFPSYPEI

Row | Structure (SMILES) | IC50 [nM]
1 | CCOc1ccc(-c2cc3[nH]cnc3c(C#N)n2)cc1C(F)(F)F [Example 1, 6-(4-Ethoxy-3-trifluoromethyl-phenyl)-1H-imidazo[4.5-c]pyridine-4-carbonitrile] | < 100
2 | CCOc1ccc(-c2cc3c(ncn3CC(=O)O)c(C#N)n2)cc1C(F)(F)F [Example 3, [4-Cyano-6-(4-ethoxy-3-trifluoromethyl-phenyl)-imidazo[4,5-c]pyridin-1-yl]-acetic acid] | < 100
3 | CCOc1ccc(-c2cc3[nH]c(CN4CCNC(=O)C4)nc3c(C#N)n2)cc1C(F)(F)F [Example 5d, 6-(4-Ethoxy-3-trifluoromethyl-phenyl)-2-(3-oxo-piperazine-1-ylmethyl)-1H-imidazo[4,5,c]pyridine-4-carbonitrile] | < 100
4 | CCOc1ccc(-c2cc3c(ncn3CCN3CCOCC3)c(C#N)n2)cc1C(F)(F)F [Example 9a, 6-(4-Ethoxy-3-trifluoromethyl-phenyl)-1-(2-morpholin-4-yl-ethyl)-1H-imidazo[4,5-c]pyridine-4-carbonitrile] | < 100
5 | CCOc1ccc(-c2cc3c(ncn3CCN3CCCCC3)c(C#N)n2)cc1C(F)(F)F [Example 9d, 6-(4-Ethoxy-3-trifluoromethyl-phenyl)-1-(2-piperidin-1-yl-ethyl)-1H-imidazo[4,5-c]-pyridine-4-carbonitrile] | < 100
6 | CCOc1ccc(-c2cc3c(ncn3CCN(C)C)c(C#N)n2)cc1C(F)(F)F [Example 9f, 1-(2-Dimethylamino-ethyl)-6-(4-ethoxy-3-trifluoromethyl-phenyl)-1H-imidazo [4,5-c]pyridine-4-carbonitrile] | < 100
7 | CCOc1ccc(-c2cc3c(ncn3CCCN3CCOCC3)c(C#N)n2)cc1C(F)(F)F [Example 10a, 6-(4-Ethoxy-3-trifluoromethyl-phenyl)-1-(3-morpholin-4-yl-propyl)-1H-imidazo[4,5-c]pyridine-4-carbonitrile] | < 100
8 | CCOc1ccc(-c2cc3c(ncn3CCCN(C)C)c(C#N)n2)cc1C(F)(F)F [Example 10f, 1-(3-Dimethylamino-propyl)-6-(4-ethoxy-3-trifluoromethyl-phenyl)-1H-imidazo-[4,5-c]pyridine-4-carbonitrile] | < 100
9 | CCOc1ccc(-c2cc3[nH]c(CN4CCN(C)CC4)nc3c(C#N)n2)cc1C(F)(F)F [Example 11a, 6-(4-Ethoxy-3-trifluoromethyl-phenyl)-2-(4-methyl-piperazin-1-ylmethyl)-1H-imidazo-[4,5-c]pyridine-4-carbonitrile] | < 100
10 | CCOc1ccc(-c2cc3[nH]c(CNCCO)nc3c(C#N)n2)cc1C(F)(F)F [Example 11h, 6-(4-Ethoxy-3-trifluoromethyl-phenyl)-2-[(2-hydroxy-ethylamino)-methyl]-1H-imidazo[4,5-c]pyridine-4-carbonitrile] | < 100
11 | CCOc1ccc(-c2cc3[nH]c(CN4CNC(=O)C4)nc3c(C#N)n2)cc1C(F)(F)F [Example 13d, 6-(4-Ethoxy-3-trifluoromethyl-phenyl)-2-(4-oxo-imidazolidin-1-ylmethyl)-1H-imidazo[4,5-c]pyridine-4-carbonitrile] | < 100
12 | CCOc1ccc(-c2cc3[nH]c(CN4CCN(CCOC)CC4)nc3c(C#N)n2)cc1C(F)(F)F [Example 13i, 6-(4-Ethoxy-3-trifluoromethyl-phenyl)-2-[4-(2-methoxy-ethyl)-piperazin-1-yl-methyl]-1H-imidazo[4,5-c]pyridine-4-carbonitrile] | < 100
